Results published in patent publication US10407422B2, “Triazolopyridine inhibitors of myeloperoxidase” (priority 2015, dated 2019).

Assays:
myeloperoxidase (MPO) [1] = target: T1, myeloperoxidase (MPO) (Homo sapiens (Human), UniProt P05164); experiment: MPO peroxidation assay (Amplex Red assay); type: biochemical; conditions: potency range class
Outline: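 Human MPO at 200 pM with 40 nM H2O2 preincubated 10 min at room temperature with inhibitor in 100 mM KPi pH 7.4. Reaction started with Amplex Red mixture (200 μM Amplex Red, 10 mM H2O2); resorufin fluorescence (Ex 535, Em 590 nm) read kinetically for 15 min. IC50 fitted from slopes over 180-540 s.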

myeloperoxidase (MPO) [2] = target: T1, myeloperoxidase (MPO); experiment: MPO chlorination assay (APF assay); type: biochemical; conditions: potency range class
Outline: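 Human MPO (200 pM) preincubated 10 min at room temperature with inhibitor and 120 mM NaCl in 100 mM KPi pH 7.4. Reaction started with APF plus 10 μM H2O2, and hypochlorite-generated fluorescein read kinetically (ex 485/em 535 nm) for 3 min. IC50 from linear-phase slopes fitted to a four-parameter equation.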

T1 sequence (P05164 49-745): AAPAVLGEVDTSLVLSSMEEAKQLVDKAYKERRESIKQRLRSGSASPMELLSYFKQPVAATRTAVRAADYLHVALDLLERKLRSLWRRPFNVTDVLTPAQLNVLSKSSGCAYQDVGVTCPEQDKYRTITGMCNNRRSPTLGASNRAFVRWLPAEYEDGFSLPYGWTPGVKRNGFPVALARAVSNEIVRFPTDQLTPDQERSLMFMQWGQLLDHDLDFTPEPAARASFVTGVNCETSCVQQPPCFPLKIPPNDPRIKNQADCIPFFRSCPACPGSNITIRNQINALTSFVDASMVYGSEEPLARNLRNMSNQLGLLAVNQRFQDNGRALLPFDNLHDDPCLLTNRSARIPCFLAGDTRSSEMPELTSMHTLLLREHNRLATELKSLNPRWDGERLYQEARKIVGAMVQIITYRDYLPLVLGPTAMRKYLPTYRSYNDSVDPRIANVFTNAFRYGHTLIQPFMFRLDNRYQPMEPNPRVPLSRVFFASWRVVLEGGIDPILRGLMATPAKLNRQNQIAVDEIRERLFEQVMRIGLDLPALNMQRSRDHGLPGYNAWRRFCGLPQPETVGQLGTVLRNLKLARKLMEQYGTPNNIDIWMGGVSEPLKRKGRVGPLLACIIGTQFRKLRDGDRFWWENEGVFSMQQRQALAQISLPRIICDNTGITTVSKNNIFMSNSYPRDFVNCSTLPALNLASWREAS

Compound	IC50 (myeloperoxidase (MPO) [1])	IC50 (myeloperoxidase (MPO) [2])
CN(C)Cc1cccc(Cn2cc(Cc3cc(N)nc4[nH]nnc34)cn2)c1 [Example 255, 7-{[1-({3-[(Dimethylamino)methyl]phenyl}methyl)-1H-pyrazol-4-yl]methyl}-3H-[1,2,3]triazolo[4,5-b]pyridin-5-amine]	1 to 100 nM	1 to 100 nM
Nc1cc(Cc2cnn(Cc3cccc(CN4CCOCC4)c3)c2)c2nn[nH]c2n1 [Example 256, 7-[(1-{[3-(Morpholin-4-ylmethyl)phenyl]methyl}-1H-pyrazol-4-yl)methyl]-3H-[1,2,3]triazolo[4,5-b]pyridin-5-amine]	101 to 999 nM	101 to 999 nM
Nc1cc(Cc2cnn(Cc3cccc([C@@H]4CNCCO4)c3)c2)c2nn[nH]c2n1 [Example 257, 7-{[1-({3-[(2R)-Morpholin-2-yl]phenyl}methyl)-1H-pyrazol-4-yl]methyl}-3H-[1,2,3]triazolo[4,5-b]pyridin-5-amine]	1 to 100 nM	1 to 100 nM
NCCN1Cc2ccc(Cn3cc(Cc4cc(N)nc5[nH]nnc45)cn3)cc2C1=O [Example 258, 6-{[4-({5-Amino-3H-[1,2,3]triazolo[4,5-b]pyridin-7-yl}methyl)-1H-pyrazol-1-yl]methyl}-2-(2-aminoethyl)-2,3-dihydro-1H-isoindol-1-one]	101 to 999 nM	101 to 999 nM
Nc1cc(Cc2cnn(Cc3ccc4c(c3)C(=O)NCC4)c2)c2nn[nH]c2n1 [Example 259, 7-{[4-({5-Amino-3H-[1,2,3]triazolo[4,5-b]pyridin-7-yl}methyl)-1H-pyrazol-1-yl]methyl}-1,2,3,4-tetrahydroisoquinolin-1-one]	1 to 100 nM	101 to 999 nM
Nc1cc(Cc2cnn(Cc3ccc4c(c3)C(c3ccccc3)CNC4)c2)c2nn[nH]c2n1 (stereo not drawn) [Example 261, 7-({1-[(4-Phenyl-1,2,3,4-tetrahydroisoquinolin-6-yl)methyl]-1H-pyrazol-4-yl}methyl)-3H-[1,2,3]triazolo[4,5-b]pyridin-5-amine]	1 to 100 nM	1 to 100 nM
Nc1cc(Cc2cnn(Cc3ccc4c(c3)C(C(F)(F)F)NCC4)c2)c2nn[nH]c2n1 (stereo not drawn) [Example 262, 7-[(1-{[1-(Trifluoromethyl)-1,2,3,4-tetrahydroisoquinolin-7-yl]methyl}-1H-pyrazol-4-yl)methyl]-3H-[1,2,3]triazolo[4,5-b]pyridin-5-amine]	101 to 999 nM	101 to 999 nM
Nc1cc(Cc2cnn(Cc3ccccc3OCc3ccccc3)c2)c2nn[nH]c2n1 [Example 263, 7-[(1-{[2-(Benzyloxy)phenyl]methyl}-1H-pyrazol-4-yl)methyl]-3H-[1,2,3]triazolo[4,5-b]pyridin-5-amine]	1 to 100 nM	101 to 999 nM
Nc1cc(Cc2cnn(Cc3ccccc3Oc3ccccc3)c2)c2nn[nH]c2n1 [Example 264, 7-({1-[(2-Phenoxyphenyl)methyl]-1H-pyrazol-4-yl}methyl)-3H-[1,2,3]triazolo[4,5-b]pyridin-5-amine]	1 to 100 nM	101 to 999 nM
Nc1cc(Cc2cnn(Cc3ccccc3Cc3ccccc3)c2)c2nn[nH]c2n1 [Example 265, 7-({1-[(2-Benzylphenyl)methyl]-1H-pyrazol-4-yl}methyl)-3H-[1,2,3]triazolo[4,5-b]pyridin-5-amine]	1 to 100 nM	1 to 100 nM
Nc1cc(Cc2cnn(Cc3cccc4c3Cc3ccccc3-4)c2)c2nn[nH]c2n1 [Example 266, 7-{[1-(9H-Fluoren-1-ylmethyl)-1H-pyrazol-4-yl]methyl}-3H-[1,2,3]triazolo[4,5-b]pyridin-5-amine]	1 to 100 nM	101 to 999 nM
Nc1cc(Cc2cnn(Cc3ccc4c(c3)CCC[C@@H]4N)c2)c2nn[nH]c2n1 [Example 267, 7-[(1-{[(5S)-5-Amino-5,6,7,8-tetrahydronaphthalen-2-yl]methyl}-1H-pyrazol-4-yl)methyl]-3H-[1,2,3]triazolo[4,5-b]pyridin-5-amine]	1 to 100 nM	1 to 100 nM
Nc1cc(Cc2cnn(Cc3ccc4c(c3)CC[C@H]4N)c2)c2nn[nH]c2n1 [Example 268, 7-[(1-{[(1R)-1-Amino-2,3-dihydro-1H-inden-5-yl]methyl}-1H-pyrazol-4-yl)methyl]-3H-[1,2,3]triazolo[4,5-b]pyridin-5-amine]	1 to 100 nM	1 to 100 nM
Nc1cc(Cc2cnn(Cc3ccc4c(c3)CCC[C@H]4N)c2)c2nn[nH]c2n1 [Example 269, 7-[(1-{[(5R)-5-Amino-5,6,7,8-tetrahydronaphthalen-2-yl]methyl}-1H-pyrazol-4-yl)methyl]-3H-[1,2,3]triazolo[4,5-b]pyridin-5-amine]	1 to 100 nM	1 to 100 nM
Nc1cc(Cc2cnn(Cc3ccc4c(c3)CC[C@@H]4N)c2)c2nn[nH]c2n1 [Example 270, 7-[(1-{[(1S)-1-Amino-2,3-dihydro-1H-inden-5-yl]methyl}-1H-pyrazol-4-yl)methyl]-3H-[1,2,3]triazolo[4,5-b]pyridin-5-amine]	101 to 999 nM	101 to 999 nM
N#Cc1ccc(Cn2cc(Cc3cc(N)nc4[nH]nnc34)cn2)cc1 [Example 271, 4-{[4-({5-Amino-3H-[1,2,3]triazolo[4,5-b]pyridin-7-yl}methyl)-1H-pyrazol-1-yl]methyl}benzonitrile]	1 to 100 nM	101 to 999 nM
N#Cc1ccc(Cn2cc(Cc3cc(N)nc4[nH]nnc34)cn2)cc1F [Example 272, 4-{[4-({5-Amino-3H-[1,2,3]triazolo[4,5-b]pyridin-7-yl}methyl)-1H-pyrazol-1-yl]methyl}-2-fluorobenzonitrile]	1 to 100 nM	101 to 999 nM
Nc1cc(Cc2cnn(CCCC3CCNCC3)c2)c2nn[nH]c2n1 [Example 273, 7-({1-[3-(Piperidin-4-yl)propyl]-1H-pyrazol-4-yl}methyl)-3H-[1,2,3]triazolo[4,5-b]pyridin-5-amine]	1 to 100 nM	101 to 999 nM
Nc1cc(Cc2cnn(CC3CC4(CCNCC4)C3)c2)c2nn[nH]c2n1 [Example 274, 7-[(1-{7-Azaspiro[3.5]nonan-2-ylmethyl}-1H-pyrazol-4-yl)methyl]-3H-[1,2,3]triazolo[4,5-b]pyridin-5-amine]	1 to 100 nM	101 to 999 nM
N#Cc1cc(Br)cc(Cn2cc(Cc3cc(N)nc4[nH]nnc34)cn2)c1 [Example 275, 3-{[4-({5-Amino-3H-[1,2,3]triazolo[4,5-b]pyridin-7-yl}methyl)-1H-pyrazol-1-yl]methyl}-5-bromobenzonitrile]	1 to 100 nM	101 to 999 nM
Nc1cc(Cc2cnn(Cc3cc(Cl)cc(-c4ccccc4)c3)c2)c2nn[nH]c2n1 [Example 276, 7-({1-[(3-Chloro-5-phenylphenyl)methyl]-1H-pyrazol-4-yl}methyl)-3H-[1,2,3]triazolo[4,5-b]pyridin-5-amine]	101 to 999 nM	101 to 999 nM

Next, values leading:

IC50 (myeloperoxidase (MPO) [1])	IC50 (myeloperoxidase (MPO) [2])	Compound
1 to 100 nM	1 to 100 nM	Nc1cc(Cc2cnn(Cc3ccc(F)c(Br)c3)c2)c2nn[nH]c2n1 [Example 277, 7-({1-[(3-Bromo-4-fluorophenyl)methyl]-1H-pyrazol-4-yl}methyl)-3H-[1,2,3]triazolo[4,5-b]pyridin-5-amine]
1 to 100 nM	101 to 999 nM	Nc1cc(Cc2cnn(Cc3cccc(-c4c[nH]cn4)c3)c2)c2nn[nH]c2n1 [Example 278, 7-[(1-{[3-(1H-Imidazol-4-yl)phenyl]methyl}-1H-pyrazol-4-yl)methyl]-3H-[1,2,3]triazolo[4,5-b]pyridin-5-amine]
1 to 100 nM	101 to 999 nM	Cc1[nH]c(-c2ccccc2)nc1-c1cccc(Cn2cc(Cc3cc(N)nc4[nH]nnc34)cn2)c1 [Example 279, 7-[(1-{[3-(5-Methyl-2-phenyl-1H-imidazol-4-yl)phenyl]methyl}-1H-pyrazol-4-yl)methyl]-3H-[1,2,3]triazolo[4,5-b]pyridin-5-amine]
1 to 100 nM	101 to 999 nM	Nc1cc(Cc2cnn(C[C@@H]3C[C@H](Oc4ccc(F)cc4)CN3)c2)c2nn[nH]c2n1 [Example 280, 7-[(1-{[(2S,4S)-4-(4-Fluorophenoxy)pyrrolidin-2-yl]methyl}-1H-pyrazol-4-yl)methyl]-3H-[1,2,3]triazolo[4,5-b]pyridin-5-amine]
1 to 100 nM	1 to 100 nM	Nc1cc(Cc2cnn(CC3CC(Cc4ccc(F)cc4)CN3)c2)c2nn[nH]c2n1 (stereo not drawn) [Example 281, 7-{[1-({4-[(4-Fluorophenyl)methyl]pyrrolidin-2-yl}methyl)-1H-pyrazol-4-yl]methyl}-3H-[1,2,3]triazolo[4,5-b]pyridin-5-amine]
1 to 100 nM	1 to 100 nM	Nc1cc(Cc2cnn(C[C@H]3C[C@H](Oc4ccc(F)cc4)CN3)c2)c2nn[nH]c2n1 [Example 282, 7-[(1-{[(2R,4S)-4-(4-Fluorophenoxy)pyrrolidin-2-yl]methyl}-1H-pyrazol-4-yl)methyl]-3H-[1,2,3]triazolo[4,5-b]pyridin-5-amine]
1000 to 10000 nM	101 to 999 nM	Nc1cc(Cc2cn(Cc3ccccc3)nc2C(F)(F)F)c2nn[nH]c2n1 [Example 283, 7-{[1-Benzyl-3-(trifluoromethyl)-1H-pyrazol-4-yl]methyl}-3H-[1,2,3]triazolo[4,5-b]pyridin-5-amine]
101 to 999 nM	101 to 999 nM	Nc1cc(Cc2cn(Cc3cccc(C4CCNCC4)c3)nc2C(F)(F)F)c2nn[nH]c2n1 [Example 284, 7-((1-(3-(Piperidin-4-yl)benzyl)-3-(trifluoromethyl)-1H-pyrazol-4-yl)methyl)-3H-[1,2,3]triazolo[4,5-b]pyridin-5-amine]
1 to 100 nM	1 to 100 nM	Nc1cc(Cc2cnn(Cc3cccc(C4CCNCC4)c3)c2C(F)(F)F)c2nn[nH]c2n1 [Example 285, 7-[(1-{[3-(Piperidin-4-yl)phenyl]methyl}-5-(trifluoromethyl)-1H-pyrazol-4-yl)methyl]-3H-[1,2,3]triazolo[4,5-b]pyridin-5-amine]
